Our source for the solubility in water and seizure frequency values is patent US20260191782A1, “URIDINE TRIACETATE AMORPHOUS FORMULATION AND USES THEREOF” (PHARMA CINQ, LLC, priority 2022, published 2026).

The conditions of series [1]: cited from earlier work.
In series [2] the test system is primary mitochondrial disease. As to the kind of experiment: Treatment of primary mitochondrial disease (patient example). It is filed as in vivo, human. As to conditions: PMD patient, dose increased to 100 mg/kg/dose twice daily. The text has this: A patient is diagnosed with primary mitochondrial disease by identification of pathogenic mutations known to impair mitochondrial oxidative phosphorylation (by whole exome sequencing and comparison with a database of known pathogenic genetic variants) combined with symptoms consistent with PMD, in this case including recurrent epileptic seizures, developmental delays, proximal renal tubular acidosis requiring bicarbonate supplementation, and exercise intolerance with early onset of fatigue during exertion. […] Within about one week, seizure frequency declines by more than 50%, and daily bicarbonate requirements to compensate for excessive urinary excretion due to proximal tubular acidosis is reduced from 200 milliEquivalents per day to less than 25. With the therapeutic goal of maintaining plasma bicarbonate above 20 mEq/liter. After several additional weeks, endurance during exercise improves, as measured by timed walking distance and standard clinical measures of subjective fatigue.

With `CC(=O)OC[C@H]1O[C@@H](n2ccc(=O)[nH]c2=O)[C@H](OC(C)=O)[C@@H]1OC(C)=O` [Uridine triacetate, 2′,3′,5′-Tri-O-acetyluridine], the solubility in water result in series [1] was “approximately 10 milligrams per milliliter”. Further, the seizure frequency entry in series [2] is listed as “decreases further”.
